One data set has as its system MV4-11. The data set is described as follows: cells. The settings on record: Homo sapiens, MV4-11, 72 h.
Another data set deals with Ephrin type-A receptor 7 (Homo sapiens, UniProt Q15375).
Data set [1] can be described thus: in vivo. As to conditions: nu/nu, mouse, po, 10 mg/kg.
Data set [2] is described as follows: in vivo. The settings on record: nu/nu, mouse, plasma, po, 10 mg/kg.
Data set [3] in a line: in vitro. As to conditions: human, A375 cells.
Description: Toxicity against human A375 cells after 72 hrs by cell titer-blue assay
Data set [4] in a line: in vivo. The settings on record: nu/nu, mouse, po, 10 mg/kg. This is another data set of the same source.
The target of data set [5] is T1, Poly [ADP-ribose] polymerase tankyrase-2 (Homo sapiens, UniProt Q9H2K2).
T1 sequence (Q9H2K2 whole entry): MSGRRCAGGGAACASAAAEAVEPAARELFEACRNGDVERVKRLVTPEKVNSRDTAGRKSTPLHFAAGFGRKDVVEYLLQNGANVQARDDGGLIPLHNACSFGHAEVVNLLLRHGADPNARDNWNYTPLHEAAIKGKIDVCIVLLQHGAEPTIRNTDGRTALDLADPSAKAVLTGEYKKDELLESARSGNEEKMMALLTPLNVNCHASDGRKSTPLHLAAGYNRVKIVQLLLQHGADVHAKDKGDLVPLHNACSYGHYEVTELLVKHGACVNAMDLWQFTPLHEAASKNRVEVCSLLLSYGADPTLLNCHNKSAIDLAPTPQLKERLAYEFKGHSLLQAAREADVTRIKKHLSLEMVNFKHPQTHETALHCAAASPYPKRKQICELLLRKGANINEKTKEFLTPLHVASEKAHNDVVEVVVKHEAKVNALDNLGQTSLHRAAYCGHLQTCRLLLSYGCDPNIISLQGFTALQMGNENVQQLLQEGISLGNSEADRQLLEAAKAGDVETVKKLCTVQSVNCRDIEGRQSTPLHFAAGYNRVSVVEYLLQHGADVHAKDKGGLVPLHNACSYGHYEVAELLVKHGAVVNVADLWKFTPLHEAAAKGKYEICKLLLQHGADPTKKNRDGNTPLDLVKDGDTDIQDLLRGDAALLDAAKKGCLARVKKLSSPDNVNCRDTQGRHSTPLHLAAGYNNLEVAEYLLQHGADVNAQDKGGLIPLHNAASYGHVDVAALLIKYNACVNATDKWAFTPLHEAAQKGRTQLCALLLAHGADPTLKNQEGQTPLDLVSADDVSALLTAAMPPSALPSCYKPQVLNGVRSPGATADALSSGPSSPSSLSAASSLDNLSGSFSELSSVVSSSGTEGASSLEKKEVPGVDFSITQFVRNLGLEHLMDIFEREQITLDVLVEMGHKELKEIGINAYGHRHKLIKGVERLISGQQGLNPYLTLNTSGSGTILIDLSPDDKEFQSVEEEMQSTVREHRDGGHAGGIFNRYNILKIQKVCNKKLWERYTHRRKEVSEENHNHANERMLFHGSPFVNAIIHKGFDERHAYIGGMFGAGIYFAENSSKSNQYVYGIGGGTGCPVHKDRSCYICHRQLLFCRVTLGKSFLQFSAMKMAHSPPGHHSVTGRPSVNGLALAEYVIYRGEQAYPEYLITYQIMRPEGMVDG

A short description of data set [6]: in vitro. The settings on record: mouse, plasma.
Description: Plasma protein binding in mouse

The term IC50 denotes the concentration needed to halve the response being measured. Higher therefore signals weaker potency in that assay. What is called Kd is the equilibrium constant for the complex coming apart. Read a low Kd as higher affinity. Broadly, the Tmax is the time from dosing to the highest level. One may read the AUC(0-t) as exposure summed from dosing to a finite time, without extrapolation to infinity. The low end stands for less exposure, the high end for more exposure. Usually Cmax stands for the peak of the concentration-time curve. As a reminder, the fraction unbound is the share of the substance not bound to proteins or other matrix. A lower fraction unbound goes with extensive binding.

Sequence of Ephrin type-A receptor 7 (Q15375 whole entry): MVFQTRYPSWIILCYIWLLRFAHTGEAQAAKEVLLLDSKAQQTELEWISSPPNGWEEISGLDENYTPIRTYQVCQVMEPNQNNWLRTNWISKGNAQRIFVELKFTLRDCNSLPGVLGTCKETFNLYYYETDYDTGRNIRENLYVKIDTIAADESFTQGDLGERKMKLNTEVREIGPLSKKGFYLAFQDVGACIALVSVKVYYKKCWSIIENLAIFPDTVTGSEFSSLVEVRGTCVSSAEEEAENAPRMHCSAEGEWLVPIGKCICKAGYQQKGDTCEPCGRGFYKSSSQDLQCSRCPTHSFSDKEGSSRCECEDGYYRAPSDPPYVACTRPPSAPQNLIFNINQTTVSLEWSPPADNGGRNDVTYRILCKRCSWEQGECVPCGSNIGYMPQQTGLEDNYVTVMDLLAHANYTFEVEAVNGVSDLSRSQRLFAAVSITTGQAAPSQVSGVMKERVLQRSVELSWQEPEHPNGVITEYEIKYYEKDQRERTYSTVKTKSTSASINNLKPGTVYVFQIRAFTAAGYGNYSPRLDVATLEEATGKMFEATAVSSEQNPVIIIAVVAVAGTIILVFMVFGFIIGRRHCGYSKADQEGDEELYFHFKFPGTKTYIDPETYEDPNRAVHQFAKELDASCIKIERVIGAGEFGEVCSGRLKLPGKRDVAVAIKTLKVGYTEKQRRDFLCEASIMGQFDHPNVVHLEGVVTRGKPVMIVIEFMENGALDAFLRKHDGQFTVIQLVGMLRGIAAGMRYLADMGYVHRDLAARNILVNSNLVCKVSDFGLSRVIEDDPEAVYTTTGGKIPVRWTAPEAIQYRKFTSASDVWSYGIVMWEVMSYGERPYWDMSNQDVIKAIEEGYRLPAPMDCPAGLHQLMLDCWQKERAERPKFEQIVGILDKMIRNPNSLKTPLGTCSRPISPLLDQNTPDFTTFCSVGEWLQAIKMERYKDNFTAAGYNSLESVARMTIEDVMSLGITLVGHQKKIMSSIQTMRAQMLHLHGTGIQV
Description for Ephrin type-A receptor 7: Binding affinity to EPHA7
Description for MV4-11: Cytotoxicity against human MV4-11 cells after 72 hrs by cell titer-blue assay

The compound `CO[C@@H]1[C@H](N(C)C(=O)c2ccccc2)C[C@H]2O[C@]1(C)n1c3ccccc3c3c4c(c5c6ccccc6n2c5c31)C(=O)N[C@H]4O` [CGP-52421] registered an IC50 in the data set with MV4-11 of 64 nM. Also, the Kd on Ephrin type-A receptor 7 was > 10000 nM. Besides, the time of peak concentration (Tmax) in “in vivo [1]” amounted to 40.2 min. Also, in “in vivo [2]”, the AUC(0-t) at 24 h was found to be 8.4 µM·h. For the same compound, the half-inhibitory concentration (IC50) at 72 h in the data set “in vitro [3]” was 530 nM. The same compound returned a maximum concentration (Cmax) in the data set “in vivo [4]” of 2300 nM.
As for `COc1cc2c(N3CCN(C(=O)Nc4ccc(OC(C)C)cc4)CC3)ncnc2cc1OCCCN1CCCCC1` [TANDUTINIB], the Kd in data set [5] is > 10000 nM. Further, in “in vitro [6]”, the fraction unbound is 0.02. In the data set with MV4-11, this compound yielded an IC50 of 60 nM. Further, the Tmax in “in vivo [1]” worked out at 60 min. Moreover, the AUC(0-t) at 24 h in the data set “in vivo [2]” was determined as 0.28 µM·h. In “in vitro [3]”, the concentration for half-maximal inhibition (IC50) at 72 h is > 10000 nM. For the same compound, the highest level in the data set “in vivo [4]” (Cmax) was 81 nM.

For the origin of these results see ChEMBL document CHEMBL1240346, “AC220 is a uniquely potent and selective inhibitor of FLT3 for the treatment of acute myeloid leukemia (AML)” (Blood, 2009).
